Columns and labels:
Assay type in all cases: in vivo
[1] = tested on: velvetleaf (Abutilon theophrasti); assay: Test G Pre-Emergence Protocol; details: Abutilon theophrasti, pre-emergence, 312 h, evaluated after 13 days; for pest or weed control at 15.625 g/ha: 15.625 g ai/ha; for pest or weed control at 15.625 g/ha / pest or weed control at 250 g/ha: read-out: Velvetleaf damage rating (100=total damage to plant; 0=no damage to plant); for pest or weed control at 62.5 g/ha: 62.5 g ai/ha, 100=total damage to plant, 0=no damage to plant, read-out: plant damage rating, Velvetleaf; for pest or weed control at 250 g/ha: 250 g ai/ha
How it was run: (§1)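 Pots of seeds in standard soil were grown for one day in a glasshouse (24/16 °C day/night, 14 h light, 65% humidity), then sprayed with compound in acetone/water 50:50 with 0.5% Tween 20 at 15.625, 62.5 or 250 g/ha. Damage was scored after 13 days on a 0 (none) to 100 (total) scale.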

[2] = tested on: barnyardgrass (Echinochloa crus-galli); assay: Test G Pre-Emergence Protocol; details: Echinochloa crus-galli, pre-emergence, 312 h, evaluated after 13 days; for pest or weed control at 15.625 g/ha: 15.625 g ai/ha, read-out: Barnyard grass damage rating (100=total damage to plant; 0=no damage to plant); for pest or weed control at 62.5 g/ha: 62.5 g ai/ha, 100=total damage to plant, 0=no damage to plant, read-out: plant damage rating, Barnyardgrass; for pest or weed control at 250 g/ha: 250 g ai/ha, read-out: Barnyardgrass damage rating (100=total damage to plant; 0=no damage to plant)
How it was run: as §1

[3] = tested on: giant foxtail (Setaria faberi); assay: Test G Pre-Emergence Protocol; details: Setaria faberi, pre-emergence, 312 h, evaluated after 13 days; for pest or weed control at 15.625 g/ha: 15.625 g ai/ha; for pest or weed control at 15.625 g/ha / pest or weed control at 250 g/ha: read-out: Foxtail, Giant damage rating (100=total damage to plant; 0=no damage to plant); for pest or weed control at 62.5 g/ha: 62.5 g ai/ha, 100=total damage to plant, 0=no damage to plant, read-out: plant damage rating, Foxtail, Giant; for pest or weed control at 250 g/ha: 250 g ai/ha
How it was run: as §1

[4] = tested on: ivy-leaved morning glory (Ipomoea hederacea); assay: Test G Pre-Emergence Protocol; details: Ipomoea, pre-emergence, 312 h, evaluated after 13 days; for pest or weed control at 15.625 g/ha: 15.625 g ai/ha, read-out: Morning-glory, Ivy-leaved damage rating (100=total damage to plant; 0=no damage to plant); for pest or weed control at 62.5 g/ha: 62.5 g ai/ha, 100=total damage to plant, 0=no damage to plant, read-out: plant damage rating, Morningglory, Ivy-leaved; for pest or weed control at 250 g/ha: 250 g ai/ha, read-out: Morningglory, Ivy-leaved damage rating (100=total damage to plant; 0=no damage to plant)
How it was run: as §1

[5] = tested on: redroot pigweed (Amaranthus retroflexus); assay: Test G Pre-Emergence Protocol; details: Amaranthus retroflexus, pre-emergence, 312 h, evaluated after 13 days; for pest or weed control at 15.625 g/ha: 15.625 g ai/ha; for pest or weed control at 15.625 g/ha / pest or weed control at 250 g/ha: read-out: Pigweed, Redroot damage rating (100=total damage to plant; 0=no damage to plant); for pest or weed control at 62.5 g/ha: 62.5 g ai/ha, 100=total damage to plant, 0=no damage to plant, read-out: plant damage rating, Pigweed, Redroot; for pest or weed control at 250 g/ha: 250 g ai/ha
How it was run: as §1

corn (Zea mays) [6] = assay: Test G Pre-Emergence Protocol; details: Zea mays, pre-emergence, 312 h, evaluated after 13 days; for plant injury at 15.625 g/ha: 15.625 g ai/ha; for plant injury at 15.625 g/ha / plant injury at 250 g/ha: read-out: Corn damage rating (100=total damage to plant; 0=no damage to plant); for plant injury at 62.5 g/ha: 62.5 g ai/ha, 100=total damage to plant, 0=no damage to plant, read-out: plant damage rating, Corn; for plant injury at 250 g/ha: 250 g ai/ha
How it was run: as §1

[7] = tested on: velvetleaf (Abutilon theophrasti); assay: Test G Post-Emergence Protocol; details: Abutilon theophrasti, post-emergence, 312 h; for pest or weed control at 15.625 g/ha: 15.625 g ai/ha, evaluated after 13 days (100=total damage to plant; 0=no damage to plant), read-out: Velvetleaf damage rating; for pest or weed control at 62.5 g/ha: 62.5 g ai/ha, read-out: Velvetleaf damage rating (100=total damage to plant; 0=no damage to plant); for pest or weed control at 62.5 g/ha / pest or weed control at 250 g/ha: evaluated after 13 days; for pest or weed control at 250 g/ha: 250 g ai/ha, read-out: damage to plant, Velvetleaf (100=total damage to plant; 0=no damage to plant)
How it was run: (§2)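 Scores run 0 (no damage) to 100 (total damage) and were taken 13 days after spraying. Plants had been raised in pots for 8 days under glasshouse control (24/16 °C, 14 h photoperiod, 65% humidity) and then treated at 15.625, 62.5 or 250 g/ha.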

[8] = tested on: barnyardgrass (Echinochloa crus-galli); assay: Test G Post-Emergence Protocol; details: Echinochloa crus-galli, post-emergence, 312 h; for pest or weed control at 15.625 g/ha: 15.625 g ai/ha, evaluated after 13 days (100=total damage to plant; 0=no damage to plant), read-out: Barnyardgrass damage rating; for pest or weed control at 62.5 g/ha: 62.5 g ai/ha, read-out: Barnyardgrass damage rating (100=total damage to plant; 0=no damage to plant); for pest or weed control at 62.5 g/ha / pest or weed control at 250 g/ha: evaluated after 13 days; for pest or weed control at 250 g/ha: 250 g ai/ha, read-out: damage to plant, Barnyardgrass (100=total damage to plant; 0=no damage to plant)
How it was run: as §2

[9] = tested on: giant foxtail (Setaria faberi); assay: Test G Post-Emergence Protocol; details: Setaria faberi, post-emergence, 312 h; for pest or weed control at 15.625 g/ha: 15.625 g ai/ha, evaluated after 13 days (100=total damage to plant; 0=no damage to plant), read-out: Foxtail, Giant damage rating; for pest or weed control at 62.5 g/ha: 62.5 g ai/ha, read-out: Foxtail, Giant damage rating (100=total damage to plant; 0=no damage to plant); for pest or weed control at 62.5 g/ha / pest or weed control at 250 g/ha: evaluated after 13 days; for pest or weed control at 250 g/ha: 250 g ai/ha, read-out: damage to plant, Foxtail, Giant (100=total damage to plant; 0=no damage to plant)
How it was run: as §2

[10] = tested on: ivy-leaved morning glory (Ipomoea hederacea); assay: Test G Post-Emergence Protocol; details: Ipomoea, post-emergence, 312 h; for pest or weed control at 15.625 g/ha: 15.625 g ai/ha, evaluated after 13 days (100=total damage to plant; 0=no damage to plant), read-out: Morningglory, Ivy-leaved damage rating; for pest or weed control at 62.5 g/ha: 62.5 g ai/ha, read-out: Morningglory, Ivy-leaved damage rating (100=total damage to plant; 0=no damage to plant); for pest or weed control at 62.5 g/ha / pest or weed control at 250 g/ha: evaluated after 13 days; for pest or weed control at 250 g/ha: 250 g ai/ha, read-out: damage to plant, Morningglory, Ivy-leaved (100=total damage to plant; 0=no damage to plant)
How it was run: as §2

[11] = tested on: redroot pigweed (Amaranthus retroflexus); assay: Test G Post-Emergence Protocol; details: Amaranthus retroflexus, post-emergence, 312 h; for pest or weed control at 15.625 g/ha: 15.625 g ai/ha, evaluated after 13 days (100=total damage to plant; 0=no damage to plant), read-out: Pigweed, Redroot damage rating; for pest or weed control at 62.5 g/ha: 62.5 g ai/ha, read-out: Pigweed, Redroot damage rating (100=total damage to plant; 0=no damage to plant); for pest or weed control at 62.5 g/ha / pest or weed control at 250 g/ha: evaluated after 13 days; for pest or weed control at 250 g/ha: 250 g ai/ha, read-out: damage to plant, Pigweed, Redroot (100=total damage to plant; 0=no damage to plant)
How it was run: as §2

corn (Zea mays) [12] = assay: Test G Post-Emergence Protocol; details: Zea mays, post-emergence, 312 h; for plant injury at 15.625 g/ha: 15.625 g ai/ha, evaluated after 13 days (100=total damage to plant; 0=no damage to plant), read-out: Corn damage rating; for plant injury at 62.5 g/ha: 62.5 g ai/ha, read-out: Corn damage rating (100=total damage to plant; 0=no damage to plant); for plant injury at 62.5 g/ha / plant injury at 250 g/ha: evaluated after 13 days; for plant injury at 250 g/ha: 250 g ai/ha, read-out: damage to plant, Corn (100=total damage to plant; 0=no damage to plant)
How it was run: as §2

Cc1c(Cl)ccc([C@@H]2CN(C)C(=O)[C@H]2C(=O)Nc2cccc(F)c2F)c1F (racemic) [Compound 1473] showed a pest or weed control at 15.625 g/ha [1] of 0%, a pest or weed control at 62.5 g/ha [1] of 0% and a pest or weed control at 250 g/ha [1] of 0%. It also gave a pest or weed control at 15.625 g/ha [2] of 20%, a pest or weed control at 62.5 g/ha [2] of 40% and a pest or weed control at 250 g/ha [2] of 70%. For the same compound, the pest or weed control at 15.625 g/ha [3] was 50%, the pest or weed control at 62.5 g/ha [3] was 70% and the pest or weed control at 250 g/ha [3] was 80%. The pest or weed control at 15.625 g/ha [4] was 10%, the pest or weed control at 62.5 g/ha [4] was 0% and the pest or weed control at 250 g/ha [4] was 10%. The pest or weed control at 15.625 g/ha [5] was 0%, the pest or weed control at 62.5 g/ha [5] was 0% and the pest or weed control at 250 g/ha [5] was 70%. It also gave a plant injury at 15.625 g/ha (corn (Zea mays) [6]) of 0%, a plant injury at 62.5 g/ha (corn (Zea mays) [6]) of 0% and a plant injury at 250 g/ha (corn (Zea mays) [6]) of 10%. The pest or weed control at 15.625 g/ha [7] was 0%, the pest or weed control at 62.5 g/ha [7] was 0% and the pest or weed control at 250 g/ha [7] was 10%. The pest or weed control at 15.625 g/ha [8] was 40%, the pest or weed control at 62.5 g/ha [8] was 40% and the pest or weed control at 250 g/ha [8] was 50%. The pest or weed control at 15.625 g/ha [9] was 60%, the pest or weed control at 62.5 g/ha [9] was 70% and the pest or weed control at 250 g/ha [9] was 70%. For the same compound, the pest or weed control at 15.625 g/ha [10] was 0%, the pest or weed control at 62.5 g/ha [10] was 10% and the pest or weed control at 250 g/ha [10] was 20%. It also gave a pest or weed control at 15.625 g/ha [11] of 0%, a pest or weed control at 62.5 g/ha [11] of 0% and a pest or weed control at 250 g/ha [11] of 10%. The plant injury at 15.625 g/ha (corn (Zea mays) [12]) was 20%, the plant injury at 62.5 g/ha (corn (Zea mays) [12]) was 10% and the plant injury at 250 g/ha (corn (Zea mays) [12]) was 10%.
In the case of COc1cc([C@@H]2CN(C)C(=O)[C@H]2C(=O)Nc2cccc(F)c2F)ccc1Cl (racemic) [Compound 1474], the pest or weed control at 15.625 g/ha [1] was 0%, the pest or weed control at 62.5 g/ha [1] was 0% and the pest or weed control at 250 g/ha [1] was 0%. The pest or weed control at 15.625 g/ha [2] was 10%, the pest or weed control at 62.5 g/ha [2] was 70% and the pest or weed control at 250 g/ha [2] was 80%. The pest or weed control at 15.625 g/ha [3] was 50%, the pest or weed control at 62.5 g/ha [3] was 80% and the pest or weed control at 250 g/ha [3] was 90%. For the same compound, the pest or weed control at 15.625 g/ha [4] was 10%, the pest or weed control at 62.5 g/ha [4] was 0% and the pest or weed control at 250 g/ha [4] was 10%. For the same compound, the pest or weed control at 15.625 g/ha [5] was 0%, the pest or weed control at 62.5 g/ha [5] was 0% and the pest or weed control at 250 g/ha [5] was 20%. The plant injury at 15.625 g/ha (corn (Zea mays) [6]) was 0%, the plant injury at 62.5 g/ha (corn (Zea mays) [6]) was 0% and the plant injury at 250 g/ha (corn (Zea mays) [6]) was 40%. The pest or weed control at 15.625 g/ha [7] was 10%, the pest or weed control at 62.5 g/ha [7] was 0% and the pest or weed control at 250 g/ha [7] was 20%. It also gave a pest or weed control at 15.625 g/ha [8] of 20%, a pest or weed control at 62.5 g/ha [8] of 50% and a pest or weed control at 250 g/ha [8] of 60%. The pest or weed control at 15.625 g/ha [9] was 60%, the pest or weed control at 62.5 g/ha [9] was 70% and the pest or weed control at 250 g/ha [9] was 70%. The pest or weed control at 15.625 g/ha [10] was 40%, the pest or weed control at 62.5 g/ha [10] was 50% and the pest or weed control at 250 g/ha [10] was 50%. For the same compound, the pest or weed control at 15.625 g/ha [11] was 30%, the pest or weed control at 62.5 g/ha [11] was 0% and the pest or weed control at 250 g/ha [11] was 30%. The plant injury at 15.625 g/ha (corn (Zea mays) [12]) was 10%, the plant injury at 62.5 g/ha (corn (Zea mays) [12]) was 30% and the plant injury at 250 g/ha (corn (Zea mays) [12]) was 40%.
